Assay results taken from US20230140453A1, “METHOD FOR CONTROLLING OBESITY BY REGULATING ACTIVITY OF TREK1” (KOREA INSTITUTE OF SCIENCE AND TECHNOLOGY, priority 2021, published 2023).

Columns and labels:
3T3L1 cell line [1] = assay: Adipocyte differentiation inhibition by TREK1 activator (triglyceride amount) in 3T3L1 cells; assay type: cell-based; settings: 10 μM, 25 μM
Method: (§1) 3T3-L1 cells were purchased from ATCC (American Type Culture Collection) and cultured in Dulbecco's Modified Eagle Medium (Gibco, N.Y., USA) with 10% (v/v) bovine serum (Gibco, N.Y., USA) and 1% v/v) penicillin/streptomycin (Thermo Fisher Scientific, N.J., USA). Cultures were maintained in a humidified 5% CO2 incubator at 37° C. After reaching 80% confluence, the differentiation of 3T3L1 cells was induced by replacing the medium with DMEM containing 10% FBS plus 1 μg/mL insulin, 0.5 mM isobutyl-1-methylxanthine (IBMX), 1 μM and 2 μM Rosiglitazone for 3 days. Afterward the medium was changed with DMEM containing 10% FBS plus 1 μg/mL insulin, and the cells were further cultured for 2 to 4 days. Culture medium contained a combination of IBMX, dexamethasone (Dex), insulin, rosiglitazone, and fetal bovine serum (FBS) to differentiate preadipocyte into mature adipocytes. After differentiation, experiments were conducted at three points. Each time the medium was changed over time, the cells were differentiated with IBMX medium for 3 days, and then changed to insulin medium every 2 days thereafter. As a result of confirmation by a microscope, the cell shape of 3T3-L1 was changed over time and intracellular lipid droplets were produced.
The 3T3L1 cell line, in which the same effect as in vivo and conditions was well confirmed, was treated with ML402, which has been reported to have an active effect on TREK1. Specifically, the cells were sampled on the 3rd, 5th, and 7th days by treating ML402 together from the time of differentiation at concentrations of 10 μM, 25 μM, and 100 μM, respectively.

3T3L1 cell line [2] = assay: Potassium ion conductivity by patch clamp in undifferentiated 3T3L1 cells; assay type: cell-based; settings: undifferentiated condition, patch clamp (FIG. 2B)
Method: as §1, with “produced. […]” for “produced.”

3T3L1 cell line [3] = assay: Differentiation of 3T3L1 preadipocytes into adipocytes; assay type: cell-based
Method: The 3T3L1 cell line, a preadipocyte cell line, was treated with MDI (Dexamethasone, IBMX, insulin) as a differentiation-inducing agent, and differentiation was induced for 7 days, and the differentiation into adipocytes was confirmed by staining with oil red 0 (FIG. 1A).
as §1, with “As a result of confirmation by a microscope, the cell shape of 3T3-L1 was changed over time and intracellular lipid droplets were produced.” left out

3T3L1 cells = assay: Intracellular calcium ion concentration in 3T3L1 preadipocytes; assay type: cell-based
Source text: In summary, the activity of TREK1, which is a potassium ion channel, was decreased in the process of differentiation into adipocytes, and as a result, the cell membrane potential was depolarized, and voltage-dependent calcium ion channels were activated, resulting in increasing intracellular calcium ion concentration and promoting the differentiation of adipocytes.

[4] = test system: primary cultured adipocytes; assay: Potassium conductivity and resting membrane potential in primary cultured adipocytes; assay type: cell-based, mouse (C57BL/6)
Method: (§2) The method for obtaining primary cultured adipocytes is as follows. Primary white adipocytes were isolated from inguinal WAT 6-8 week mouse (C57BL/6). The extracted WAT was washed in a 15 mL tube. The enzyme solution was mixed with collagenase Type II (Worthington Industries, Columbus, Ohio, USA) and PBS (Gibco, N.Y., USA), and the tissue was incubated in 20 mL enzyme solution in an incubator at 37° C. for 1 hour. After filtering, the tissue was added to a new 50 mL tube and centrifuged at 10,000 rpm for 10 minutes. The adipocytes floating in the solution were transferred to a new tube using a pipette. Then, the adipocytes were once more centrifuged in DMEM/F12 (Gibco, N.Y., USA) containing 10% (v/v) FBS. After transferring the fatty layer to the cell culture flask, and the flask was filled with DMEM/F12+mixture. The flask was inverted and incubated in a 37° C. CO2 incubator, and the medium was changed after about 5 days.

[5] = test system: primary cultured adipocytes; assay: Differentiation of primary cultured adipocytes; assay type: cell-based, mouse (C57BL/6); settings: primary cultured adipocytes treated with TREK1 inhibitor (FIG. 4 legend)
Method: as §2

With Cc1cc(Cl)ccc1OCCNC(=O)c1cccs1 [ML402] the differentiation process (3T3L1 cell line [1]; 3T3L1, 100 μM (FIG. 7)) was “inhibited in a concentration-dependent manner”, the amount of triglycerides (3T3L1 cell line [1]; 3rd day, 100 μM from the time of differentiation, vs control group (FIG. 7)) was “did not show a significant difference” and the amount of triglycerides (3T3L1 cell line [1]; 5th and 7th days, 100 μM from the time of differentiation (FIG. 7)) was “decreased in a concentration-dependent manner”.

spadin was tested, and the potassium conductivity (3T3L1 cell line [2]) was “most of the potassium conductivity was decreased”, the “degree of differentiation into adipocytes” value (3T3L1 cell line [3]; treated in the process of differentiation of 3T3L1 (FIG. 2C)) was “the degree of differentiation was significantly increased” and the “intracellular calcium ion concentration” value (3T3L1 cells; 30 minutes after spadin treatment (FIG. 3A)) was “a significant increase in calcium ions”. The resting membrane potential ([4]; 1 μM concentration (FIG. 4C)) was “the resting membrane potential was also increased”, the potassium ion conductivity ([4]; 1 μM concentration (FIGS. 4A and 4B)) was “significantly decreased” and the differentiation into adipocytes [5] was “differentiation into adipocytes is significantly increased”.

For COC(=O)C1=C(C)NC(C)=C(C(=O)OC)C1c1ccccc1[N+](=O)[O-] [nifedifine], the differentiation into adipocytes (3T3L1 cell line [3]; with voltage-dependent calcium ion channel inhibitor, spadin-treated 3T3L1 (FIGS. 3D and 3E)) was “differentiation into adipocytes was also inhibited” and the “spadin-induced increase in calcium ions” value (3T3L1 cells; with voltage-dependent calcium ion channel inhibitor (FIGS. 3B and 3C)) was “effectively inhibited”.
